The record followed here is ChEMBL document CHEMBL1201862, “PubChem BioAssay data set” (2004).

Molecules are shown by their SMILES.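 These data come from cells grown in 96-well plates and exposed to compound for 48 hours at five concentrations. At the GI50, growth is halved.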 Active and inactive are the calls of the source. Rule as the data show it: active = GI50 up to about 1.1 µM and inactive = higher. Where only a bound is given, the exact number is not on record here.

Among the test systems are UACC-62; SF-295; OVCAR-4; HCT-15; SNB-19; SF-268; SNB-75; HT-29; SK-OV-3; U-251; MOLT-4; OVCAR-3; HL-60; UACC-257; K562; SW-620; SF-539; NCI-H226; UO-31; KM12.
Common to all, as to assay: NCI tumour cell line growth inhibition, 48 h

With `COc1ccc(/C(C=O)=C(\Cl)c2ccc(OC)c(OC)c2)cc1`, the GI50 with UACC-62 was > 100 µM (inactive); with SF-295, > 100 µM (inactive); with OVCAR-4, > 100 µM (inactive); in the assay on HCT-15, over 100 µM; with SNB-19, > 100 µM (inactive); in the assay with SF-268, 46.1 µM (inactive). For the same molecule, the GI50 in the assay on SNB-75 is 22.6 µM (inactive); in the assay with HT-29 it was > 100 µM (inactive); in the assay with SK-OV-3, 67.1 µM (inactive); in the assay with U-251 it was 32.1 µM (inactive); with MOLT-4 it was 87.3 µM (inactive); in the assay with OVCAR-3 it was > 100 µM (inactive). Also, the GI50 in the assay with HL-60 is 24 µM (inactive); in the assay on UACC-257, > 100 µM (inactive); in the assay with K562, 62.8 µM (inactive); in the assay on SW-620, > 100 µM (inactive); in the assay on SF-539, 57.3 µM (inactive); in the assay on NCI-H226, > 100 µM (inactive). In addition, the GI50 with UO-31 is > 100 µM (inactive).

For `COc1ccc(C2C3CCCC(C3=O)C(c3ccc(OC)cc3)N2N=O)cc1` (stereo not drawn), the GI50 in the assay with UACC-62 is 28.6 µM (inactive); in the assay on SF-295 it was 20.7 µM (inactive); in the assay with OVCAR-4, 21.7 µM (inactive); in the assay with HCT-15, 36.9 µM; with SNB-19, 36.3 µM (inactive); with SF-268 it was 48.5 µM (inactive). Further, the GI50 with KM12 is 29.6 µM (inactive); in the assay on SNB-75 it was 26.5 µM (inactive); in the assay with HT-29 it was 21.4 µM (inactive); in the assay on SK-OV-3 it was 37.4 µM (inactive); in the assay on U-251, 40.6 µM (inactive); in the assay with MOLT-4, 25.2 µM (inactive). The GI50 in the assay with OVCAR-3 was 6.71 µM (inactive); in the assay on HL-60, 25.2 µM (inactive); with UACC-257 it was 27.9 µM (inactive); with K562, 23.9 µM (inactive); in the assay with SW-620, 42.9 µM (inactive); with SF-539, > 10 µM (inactive). The results for the GI50 in the assay on NCI-H226 and in the assay on UO-31 were 23.3 µM (inactive) and 56.1 µM (inactive), respectively.

As for `COc1ccc2[nH]cc(/C=C(/C)c3ccncc3)c2c1`, the GI50 in the assay on UACC-62 was 5.01 µM (inactive); in the assay with SF-295, 6.35 µM (inactive); in the assay on OVCAR-4 it was 65 µM (inactive); in the assay on HCT-15, 1.19 µM; in the assay on SNB-19, 50.6 µM (inactive); with SF-268 it was 11.1 µM (inactive). Also, the GI50 is 2.44 µM (inactive) in the assay on KM12; 2.38 µM (inactive) in the assay with SNB-75; 3.25 µM (inactive) in the assay with HT-29; 4.41 µM (inactive) in the assay on SK-OV-3; 5.3 µM (inactive) in the assay with U-251; 3.62 µM (inactive) in the assay with MOLT-4. For the same molecule, the GI50 in the assay with OVCAR-3 is 5.7 µM (inactive); in the assay with HL-60 it was 1.44 µM (inactive); with UACC-257 it was 7.48 µM (inactive); in the assay on K562 it was 2.98 µM (inactive); with SW-620 it was 3.83 µM (inactive); in the assay with SF-539 it was 8.36 µM (inactive). Further, the GI50 is 22.6 µM (inactive) in the assay with NCI-H226 and 23.2 µM (inactive) in the assay with UO-31.

Turning to `COC1/C=C\C=C(/C)C(=O)NC2=CC(=O)C=C(C2=O)C(OC)C(C)CC(OC)C(OC)C(C)/C=C(/C)C1OC(N)=O` (stereo not drawn), the GI50 in the assay with UACC-62 was 0.76 µM (active); in the assay with SF-295, 20.6 µM (inactive); with OVCAR-4, 8.26 µM (inactive); with HCT-15, 3.38 µM; with SNB-19, 14.1 µM (inactive); in the assay on SF-268, 11.5 µM (inactive). In addition, the GI50 with KM12 was 5.7 µM (inactive); with SNB-75 it was 17.3 µM (inactive); in the assay with HT-29, 0.608 µM (active); with SK-OV-3 it was 14.6 µM (inactive); with U-251 it was 12.7 µM (inactive); with MOLT-4 it was 0.214 µM (active). Also, the GI50 with OVCAR-3 was 1.49 µM (inactive); in the assay on HL-60, 0.132 µM (active); in the assay on UACC-257, 1.37 µM (inactive); in the assay with K562, 0.15 µM (active); in the assay with SW-620 it was 0.146 µM (active); with SF-539, 8.09 µM (inactive). For the same molecule, the GI50 in the assay with NCI-H226 is 21.8 µM (inactive); in the assay with UO-31, 16.4 µM (inactive).

`C#CCCCC(=C)C[C@H](OCc1ccccc1)[C@H]1OC(=O)[C@@H]1C`: the GI50 with UACC-62 is > 100 µM (inactive); in the assay on SF-295, 89.7 µM (inactive); in the assay on OVCAR-4 it was > 100 µM (inactive); in the assay on HCT-15 it was 79.4 µM; with SNB-19 it was > 100 µM (inactive); in the assay with SF-268, > 100 µM (inactive). Moreover, the GI50 was 39 µM (inactive) in the assay with KM12; > 100 µM (inactive) with SNB-75; > 100 µM (inactive) in the assay on SK-OV-3; > 100 µM (inactive) with U-251; 31.3 µM (inactive) in the assay on OVCAR-3; 66.1 µM (inactive) in the assay on HL-60. Moreover, the GI50 with UACC-257 was > 100 µM (inactive); in the assay on SW-620, > 100 µM (inactive); in the assay on SF-539, 20.5 µM (inactive); in the assay with NCI-H226, 96.4 µM (inactive); with UO-31 it was 23.9 µM (inactive).

Take `Nc1ccc(OCC(O)N2C(=O)c3ccccc3C2=O)cc1` (stereo not drawn): the GI50 is > 100 µM (inactive) in the assay with UACC-62; > 100 µM (inactive) with SF-295; > 100 µM (inactive) with OVCAR-4; over 100 µM with HCT-15; > 100 µM (inactive) in the assay on SNB-19; > 100 µM (inactive) with SF-268. For the same molecule, the GI50 in the assay with HT-29, in the assay on SK-OV-3, with U-251, in the assay with MOLT-4, in the assay with OVCAR-3 and in the assay with HL-60 was > 100 µM (inactive) throughout. For the same molecule, the GI50 was > 100 µM (inactive) in the assay with UACC-257, > 100 µM (inactive) with K562, 76.9 µM (inactive) with SW-620 and > 100 µM (inactive) with UO-31.

Consider `O=C1/C(=C/c2ccc(Cl)cc2)N=C(c2ccccc2)N1/N=C/c1ccccc1O`, for which the GI50 in the assay on UACC-62 is 13.9 µM (inactive); with SF-295, 11.9 µM (inactive); in the assay on OVCAR-4, 4.57 µM (inactive); with HCT-15, 30.9 µM; with SNB-19 it was > 100 µM (inactive); in the assay with SF-268, 14.8 µM (inactive). The GI50 in the assay on KM12 was 12.9 µM (inactive); in the assay on SNB-75, 6.31 µM (inactive); in the assay on HT-29, 21.1 µM (inactive); with SK-OV-3 it was 5.61 µM (inactive); in the assay on U-251, 5.27 µM (inactive); in the assay on MOLT-4 it was 12.6 µM (inactive). In addition, the GI50 in the assay on OVCAR-3 was 9.1 µM (inactive); in the assay with HL-60, 28.1 µM (inactive); with UACC-257 it was > 100 µM (inactive); with K562, 9.12 µM (inactive); with SW-620, > 100 µM (inactive); with SF-539, 10.9 µM (inactive). The GI50 in the assay with NCI-H226 is 19.2 µM (inactive); in the assay on UO-31, 11.6 µM (inactive).

For `CSCC[C@@H]1C(=O)N(C)[C@H](C(C)(C)C)N1C(=O)c1ccccc1`, the GI50 with UACC-62 was > 100 µM (inactive); with SF-295, > 100 µM (inactive); in the assay with OVCAR-4, > 100 µM (inactive); in the assay with HCT-15, over 100 µM; in the assay on SNB-19 it was > 100 µM (inactive); with SF-268 it was > 100 µM (inactive). Besides, the GI50 in the assay with KM12 was > 100 µM (inactive); in the assay with SNB-75, > 100 µM (inactive); in the assay on HT-29 it was > 81.5 µM (inactive); in the assay with SK-OV-3, > 100 µM (inactive); with U-251, > 100 µM (inactive); with MOLT-4, > 100 µM (inactive). The GI50 in the assay on OVCAR-3, with HL-60, with UACC-257, in the assay on K562, in the assay on SW-620 and in the assay with SF-539 was > 100 µM (inactive) throughout. For the same molecule, the GI50 in the assay on NCI-H226 and with UO-31 was > 100 µM (inactive) in each case.

For the molecule `CO[C@@]12[C@H](COC(N)=O)C3=C(C(=O)C(C)=C(N)C3=O)N1C[C@@H]1N[C@@H]12` [MITOMYCIN], the GI50 was 3.56 µM (inactive) with OVCAR-4; 1.29 µM with HCT-15; 2.22 µM (inactive) in the assay with KM12; 0.759 µM (active) with HT-29; 1.02 µM (active) in the assay with SK-OV-3; 0.23 µM (active) in the assay on MOLT-4. Moreover, the GI50 in the assay on OVCAR-3 was 3.07 µM (inactive); with HL-60 it was 0.204 µM (active); in the assay on UACC-257 it was 1.21 µM (inactive); in the assay with K562, 2.03 µM (inactive); in the assay with SW-620, 0.485 µM (active); in the assay on NCI-H226 it was 0.714 µM (active). For the same molecule, the GI50 in the assay on UO-31 is 1.87 µM (inactive).

Consider `COC(=O)C1=C(C)N2CCCOC2(C)C(C(=O)OC)C1c1cccc(Cl)c1` (stereo not drawn), for which the GI50 with UACC-62 was 15.2 µM (inactive); with SF-295, 21.7 µM (inactive); in the assay with OVCAR-4, 56.5 µM (inactive); in the assay with SNB-19 it was 42.3 µM (inactive); with SF-268, 32.8 µM (inactive); in the assay with KM12 it was 17.9 µM (inactive). Also, the GI50 was 0.452 µM (active) in the assay with SNB-75; 22.2 µM (inactive) with HT-29; 16.7 µM (inactive) in the assay with MOLT-4; 22.2 µM (inactive) in the assay on OVCAR-3; 16.4 µM (inactive) with HL-60; 19.7 µM (inactive) in the assay on UACC-257. For the same molecule, the GI50 is 27.2 µM (inactive) in the assay on K562; > 100 µM (inactive) in the assay with SW-620; 27.8 µM (inactive) in the assay with SF-539; 17.8 µM (inactive) with NCI-H226; 22.3 µM (inactive) in the assay with UO-31.

For the molecule `O=S(O)c1cc(Cl)c(O)c(Cl)c1`, the GI50 in the assay with UACC-62, in the assay with OVCAR-4, in the assay on SNB-19, in the assay with SF-268, with KM12 and with SNB-75 was > 100 µM (inactive) throughout. Further, the GI50 in the assay with HT-29, with SK-OV-3, in the assay on U-251, in the assay on MOLT-4, with OVCAR-3 and in the assay with HL-60 was > 100 µM (inactive) each time. The GI50 in the assay on UACC-257, in the assay on K562, with SF-539 and in the assay with UO-31 was > 100 µM (inactive) each time.
